IC50 data for 27 compounds are collected here from ChEMBL document CHEMBL4888484, “Replenishing the malaria drug discovery pipeline: Screening and hit evaluation of the MMV Hit Generation Library 1 (HGL1) against asexual blood stage Plasmodium falciparum ,using a nano luciferase reporter read-out” (2022).

Data set [1] relates to Plasmodium falciparum. Description: Hit confirmation in dose-response curve in NF54 nanoGlo assay, at 72h. Type of data set: functional, organism-based, Erythrocyte. On the set-up: timepoint 72 hour.
Data set [2] concerns Plasmodium falciparum. Description: Hit confirmation in dose-response curve in NF54 pLDH assay, at 72h. The format is functional, organism-based. Details: timepoint 72 hour. The conditions noted are these: NF54, Erythrocyte.
Data set [3] has as its system Plasmodium falciparum. Put plainly: Hit confirmation in dose-response curve in Dd2 pLDH assay, at 72h. The format is functional, organism-based. Details: timepoint 72 hour. The conditions noted are these: Dd2, Erythrocyte.
Data set [4] has as its system Plasmodium falciparum. Description: Hit confirmation in dose-response curve in NF54 nanoGlo assay, at 12h. The format is functional, organism-based, Erythrocyte. Details: timepoint 12 hour.
Data set [5] in a line: Hit confirmation in dose-response curve in HepG2 cytotoxicity assay, at 72h. The format is toxicity, cell-based. On the set-up: timepoint 72 hour. Particulars: human, HepG2 cells.
Setting [6] is: Plasmodium falciparum, NF54, Erythrocyte, 72 h.
[7] abbreviates: Plasmodium falciparum, NF54, Erythrocyte, 12 h.

A word on the IC50: it is the concentration needed to halve the response being measured. With `Cc1ccccc1Cn1cnc2c1c(=O)n(C1CCCCC1)c(=O)n2-c1ccccc1Cl`, the IC50 in data set [1] (setting [6]) is 1.74 µM; in data set [2], 5.5 µM; in data set [3], 4.27 µM; in data set [4] (setting [7]) it was > 10 µM. The IC50 at 72 h in data set [5] was > 10 µM.
As for `O=S(=O)(c1cccc(Cl)c1)N1CCc2nc(N3CCCCC3)nc(Oc3ccccc3)c2C1`, the IC50 in data set [1] (setting [6]) was 1.95 µM; in data set [2] it was 3.02 µM; in data set [3] it was 2.75 µM; in data set [4] (setting [7]), > 10 µM. In addition, the IC50 at 72 h in data set [5] is > 10 µM.
As to `CN1CCN(C2(CNc3ccnc4ccccc34)CCCC2)CC1`, the IC50 in data set [1] (setting [6]) stood at 0.479 µM; in data set [2], 0.38 µM; in data set [3] it was 0.355 µM; in data set [4] (setting [7]), 0.708 µM. Also, the IC50 at 72 h in data set [5] was > 10 µM.
The corresponding values for `CC(C)Nc1nc2nonc2n2cnnc12` are 1.95 µM, 4.37 µM, 3.55 µM, 4.47 µM and > 10 µM.
The corresponding values for `Cc1ccc(C(F)(F)C(=O)NCCC(=O)NS(C)(=O)=O)cc1` are 2.75 µM, 0.447 µM, > 10 µM, > 10 µM and > 10 µM.
Turning to `COc1ccccc1Cn1cnc2c1c(=O)n(C1CCCCC1)c(=O)n2-c1ccccc1Cl`, the IC50 was 1.41 µM in data set [1] (setting [6]), 3.98 µM in data set [2], 3.16 µM in data set [3] and > 10 µM in data set [4] (setting [7]). For the same compound, in data set [5], the IC50 at 72 h is > 10 µM.
With `COc1ccc(-c2cc(C(F)(F)F)nc(-n3nc(-c4cccc(OC)c4)c(Cl)c3-c3cccc(OC)c3)n2)cc1`, the IC50 in data set [1] (setting [6]) was 1.51 µM; in data set [2], > 10 µM; in data set [3] it was 4.07 µM; in data set [4] (setting [7]), 1.74 µM. Moreover, in data set [5], the IC50 at 72 h is > 10 µM.
Take `Cc1c(-c2ccc(F)cc2)[nH]c2ccc(CNc3nccc(N(C)C)n3)cc12`: the IC50 in data set [1] (setting [6]) is 1.95 µM; in data set [2] it was 3.8 µM; in data set [3], 3.31 µM; in data set [4] (setting [7]), 3.89 µM. For the same compound, the IC50 at 72 h in data set [5] is > 10 µM.
Taken in the same sequence, the figures for `O=c1[nH]c(=O)n(S(=O)(=O)c2ccccc2)cc1F` were 0.00275 µM, 0.00347 µM, > 10 µM, 2.04 µM and > 10 µM.
In the case of `COc1cccc(-c2nc(C)c(C(=O)Nc3n[nH]c(CC(C)C)n3)s2)c1`, the IC50 in data set [1] (setting [6]) is 0.676 µM; in data set [1] (erythrocyte), 1.17 µM; in data set [2], > 10 µM; in data set [3] it was > 10 µM; in data set [4] (setting [7]), 0.794 µM; in data set [4] (erythrocyte) it was 0.631 µM. In addition, the IC50 at 72 h in data set [5] was > 10 µM.
`CNc1nc(Nc2ccc3c(c2)OCCO3)nc2ccccc12`: the IC50 in data set [1] (setting [6]) was 0.851 µM; in data set [2] it was 1.17 µM; in data set [3] it was 1.17 µM; in data set [4] (setting [7]), 1.91 µM. Also, in data set [5], the IC50 at 72 h was > 10 µM.
Take `CC12CN(S(=O)(=O)c3ccc4c(c3)OCCO4)C3(C(=O)OCc4ccccc4)CC1CCC23C` (configuration not stated): the IC50 in data set [1] (setting [6]) is 2.82 µM; in data set [2], 3.8 µM; in data set [3] it was 3.24 µM; in data set [4] (setting [7]), > 10 µM. In data set [5], the IC50 at 72 h is > 10 µM.
Take `c1cc(-c2nc3cc4ccccc4cc3[nH]2)nc(-c2nc3cc4ccccc4cc3[nH]2)c1`: the IC50 was found to be 0.513 µM in data set [1] (setting [6]), 1.15 µM in data set [2], 1.95 µM in data set [3] and 0.977 µM in data set [4] (setting [7]). For the same compound, it took 8.32 µM to reach half-maximal inhibition in data set [5] (IC50 at 72 h).
The corresponding values for `CC1CCN(C[C@H]2CCCCCN2C(=O)NCCc2ccccc2)CC1` are 3.98 µM, 2.45 µM, 6.31 µM, > 10 µM and > 10 µM.
Taken in the same sequence, the figures for `Cc1nn(C(C)(C)C)c2nc(C3CC3)cc(C(=O)N(C)c3ccccc3)c12` were 1.86 µM, 2.34 µM, 1.66 µM, > 10 µM and > 10 µM.
For the compound `CCc1ccc(C(=O)Nc2cnc(-n3ccnc3)nc2)cc1`, the IC50 in data set [1] (setting [6]) is 5.01 µM; in data set [2], 3.55 µM; in data set [3] it was 6.31 µM; in data set [4] (setting [7]) it was > 10 µM. Further, in data set [5], the IC50 at 72 h was > 10 µM.
On to `CCCc1cc(-c2nc(-c3ccc(-n4nc(C)cc4N)cc3)no2)n(C)n1`, for which the IC50 in data set [1] (setting [6]) is 0.871 µM; in data set [2], 1.82 µM; in data set [3], 1.86 µM; in data set [4] (setting [7]), > 10 µM. The IC50 at 72 h in data set [5] is > 10 µM.
Take `COc1ccc(C(=O)CN2C=CCC=C2c2nc(-c3ccc(Cl)cc3)cs2)cc1`: the IC50 in data set [1] (setting [6]) is 2.14 µM; in data set [2], 5.13 µM; in data set [3] it was 3.02 µM; in data set [4] (setting [7]), > 10 µM. Besides, the IC50 at 72 h in data set [5] was > 10 µM.
`CCC(C)NCC(O)Cn1c(-c2ccccc2)c(-c2ccccc2)c2cc(C)ccc21` (configuration not stated): the IC50 was found to be 1.02 µM in data set [1] (setting [6]), 2.57 µM in data set [2], 2.75 µM in data set [3] and 1.51 µM in data set [4] (setting [7]). For the same compound, the IC50 at 72 h in data set [5] is > 10 µM.
Taken in the same sequence, the figures for `O=C(Nc1cnc(-n2ccnc2)nc1)C(c1ccccc1)c1ccccc1` were 2.45 µM, 3.98 µM, 5.25 µM, 7.94 µM and > 10 µM.
`O=S(=O)(c1ccc(Cl)s1)N1CCC(N2CCc3sccc3C2)CC1`: the IC50 in data set [1] (setting [6]) was 3.47 µM; in data set [2], 1.12 µM; in data set [3], 5.62 µM; in data set [4] (setting [7]) it was > 10 µM. Further, in data set [5], the IC50 at 72 h is > 10 µM.
As to `COc1ccc2[nH]c3c(c2c1)CCN(C(=O)c1ccc(C)c(C)c1)[C@@H]3c1ccccc1OC`, the half-maximal inhibitory concentration (IC50) in data set [1] (setting [6]) came out at 1.74 µM; in data set [2], 3.55 µM; in data set [3], 2.57 µM; in data set [4] (setting [7]) it was 8.71 µM. Moreover, the IC50 at 72 h in data set [5] was > 10 µM.
For the compound `CN1CCCN(c2ccnc3ccsc23)CC1`, the IC50 in data set [1] (setting [6]) was 2.95 µM; in data set [2], 3.8 µM; in data set [3] it was 2.45 µM; in data set [4] (setting [7]), 3.8 µM. Moreover, the IC50 at 72 h in data set [5] is > 10 µM.
For `Cc1cc(OCCOCCNCCN)cc(C(C)C)c1`, the IC50 in data set [1] (setting [6]) was 4.68 µM; in data set [2], > 10 µM; in data set [3] it was 10.7 µM; in data set [4] (setting [7]), > 10 µM. For the same compound, in data set [5], the IC50 at 72 h was > 10 µM.
As for `C[C@@H](CNc1nc(-c2ccccc2)nc2nc(-c3ccc(Cl)cc3)oc12)N1CCCCC1`, the 50% inhibitory concentration (IC50) in data set [1] (setting [6]) stood at 3.39 µM; in data set [2] it was 7.59 µM; in data set [3], 5.89 µM; in data set [4] (setting [7]) it was 9.55 µM. Besides, the IC50 at 72 h in data set [5] was > 10 µM.
Taken in the same sequence, the figures for `COc1cc(F)c([C@H](C)NC(=O)N(C)Cc2ccco2)cc1OC` were 1.86 µM, > 10 µM, 10.7 µM, 0.891 µM and > 10 µM.
Taken in the same sequence, the figures for `COc1ccc(-c2cc3nc(C)cc(N4CCN(C/C=C/c5ccccc5)CC4)n3n2)cc1OC` were 2.24 µM, 7.41 µM, 5.62 µM, 4.9 µM and > 10 µM.
